Values joined by “and” are separate entries in the source; they are usually repeats but may differ in a detail not shown here. Equal values may be shown once.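 Dose response: 5 concentrations. Exposure: 48 h. Format: 96-well plates. Endpoint: linear interpolation; highest concentration if not reached. Abbreviation: GI50, concentration required for 50% inhibition of growth. TGI is the concentration that stops growth completely.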 Some results are limits rather than exact numbers.

What all share (experiment): NCI tumour cell line growth inhibition, 48 h
Experiment [1] relates to KM20L2 colon.
Experiment [2] has as its system DMS 114 small cell lung.
Experiment [3] deals with RXF-631 renal.
For experiment [4], the system named is DLD-1 colon.
Experiment [5] relates to LXFL 529 NSCLC.
For experiment [6], the system named is DU-145 prostate.
In experiment [7] the test system is SN12K1 renal.
Experiment [8] relates to MDA-MB-435.
The test system of experiment [9] is MCF7 breast.
The test system of experiment [10] is MDA-N.
Experiment [11] deals with P388 leukemia.

Consider `COC(=O)C12C3C4C1C1C2C3C41C(=O)OC(C)(C)C` (configuration not stated), for which the TGI in experiment [1] was more than 100 µM; in experiment [2] it was more than 67.4 µM; in [3], more than 100 µM; in experiment [4], more than 72.3 µM; in experiment [5], more than 100 µM.
Consider `Cc1cc(Br)cc(C)c1NC(=O)C(=O)C(C(=O)c1ccc2ccccc2c1)C1OC(=O)c2ccccc21` (configuration not stated), for which the TGI was 38.7 µM in [1]; 41.8 µM in experiment [2]; more than 100 µM in experiment [3]; 34.2 µM in experiment [4]; 22.3 µM in [5].
On to `O=S(O)CCCCSSCC(O)C(O)CSSCCCCS(=O)O` (configuration not stated), for which the TGI in experiment [1] is more than 100 µM; in [2], 34 µM and 56.6 µM; in experiment [3] it was more than 100 µM; in experiment [4], more than 100 µM; in experiment [5] it was 22.5 µM and 30.5 µM.
With `CC1OC(n2cc(F)c(=O)[nH]c2=O)C=CC1O` (configuration not stated), the TGI in [1], in [2], in experiment [3], in [4] and in experiment [5] was more than 100 µM in each case.
On to `COC(=O)C(C(=O)C(=O)Nc1cccc(OC)c1)c1cnc2ccccc2n1` (configuration not stated), for which the TGI in experiment [1], in experiment [2], in experiment [3], in experiment [4] and in [5] was more than 100 µM each time.
As for `O=C1CN=C(C[N+](=O)[O-])c2ccccc21`, the TGI in [1], in [2], in [3], in experiment [4] and in experiment [5] was more than 100 µM throughout.
Consider `CNC(=S)NC1CCCCC1NC(=S)NC` (configuration not stated), for which the TGI in [1], in experiment [2], in experiment [3], in experiment [4] and in [5] was more than 100 µM each time.
Regarding `CC(C)(C)[SiH]12(OC(C(F)(F)F)(C(F)(F)F)c3ccccc31)OC(C(F)(F)F)(C(F)(F)F)c1ccccc12`, the TGI in experiment [1] worked out at 7.83 µM; in experiment [2], 22.3 µM; in experiment [3] it was 10.7 µM; in experiment [4], 13.3 µM; in experiment [5], 16.2 µM.
On to `O=c1nc2occc2cn1C1CC(O)C(CO)O1` (configuration not stated), for which the TGI in experiment [1], in experiment [2], in experiment [3], in [4] and in experiment [5] was more than 100 µM each time.
For `Cc1ccccc1N1C(=O)/C(=C/c2ccc(N(CCC#N)CCC#N)cc2)N=C1c1cc([N+](=O)[O-])ccc1Cl`, the TGI in [1], in experiment [2], in experiment [3], in [4] and in experiment [5] was more than 100 µM each time.
Turning to `C=C(C=O)[C@@H]1C2OC(=O)C(=C)[C@@H]2CC(O)[C@@]1(C)CC` (some centres not stated), the TGI in [1] stood at 24.9 µM; in [2], 36.8 µM; in [3] it was 37.7 µM; in experiment [4], 9.7 µM; in [5], 8.23 µM.
Regarding `O=C(Nc1nc2ncn(CCI)c2c(=O)[nH]1)c1ccccc1`, the TGI in experiment [1], in experiment [3] and in experiment [5] was more than 100 µM throughout.
`CC(O)C(N=Cc1ccccc1[O-])C(=O)[O-].CC(O)C(N=Cc1ccccc1[O-])C(=O)[O-].[Co+2]` (configuration not stated): the values for the GI50 in [1], in experiment [3] and in experiment [4] were more than 100 µM, more than 100 µM and 83.7 µM, respectively. In addition, the TGI in experiment [1], in [3] and in [4] was more than 100 µM throughout.
As to `CCOP(=O)(Cc1ccc(CP(=O)(OCC)OCC)n1C)OCC`, the TGI in experiment [1], in experiment [2], in experiment [3], in experiment [4] and in experiment [5] was more than 100 µM in each case.
With `O=c1n(CC2CO2)c(=O)n(CC2CO2)c(=O)n1CC1CO1` (configuration not stated), the TGI in experiment [1] is 201 µM; in [6], 66.2 µM and 127 µM and 37.3 µM; in [2], 70.9 µM; in experiment [7], 174 µM; in experiment [4] it was 143 µM; in [8], 63.8 µM and > 100 µM. The TGI is 85.7 µM and > 100 µM in experiment [9]; 72 µM and 82.6 µM in [10]; 122 µM in [11]. The GI50 was 11 µM and 3.22 µM in [6]; 3.9 µM and 1.89 µM in experiment [9]; 26.5 µM in experiment [10].
On to `O=C(O)CNc1cc(-c2ccccc2)nc(NCC(=O)O)n1`, for which the TGI in [1], in experiment [2], in [3], in experiment [4] and in [5] was more than 100 µM throughout.
Take `CS(=O)(=O)N/N=C/CN1C(=O)c2ccccc2C1=O`: the TGI in [1], in experiment [2], in experiment [4] and in experiment [5] was more than 100 µM throughout.
Take `COC(=O)c1cc2c3ccccc3n(C(C)=O)c2cn1`: the TGI in experiment [1], in experiment [2], in experiment [3], in experiment [4] and in experiment [5] was more than 100 µM each time.
Regarding `O=S(=O)([O-])c1ccc2c(c1)-c1nc-2nc2[n-]c(nc3nc(nc4[n-]c(n1)c1ccc(S(=O)(=O)[O-])cc41)-c1cc(S(=O)(=O)[O-])ccc1-3)c1ccc(S(=O)(=O)[O-])cc21.[Cu+2].[Na+]`, the GI50 is 2.35 µM in [1]; more than 100 µM in [6]; 31.2 µM in experiment [2]; more than 86.8 µM in experiment [3]; 7.65 µM in [4]; more than 100 µM in experiment [8]. The GI50 in [9] is more than 100 µM; in [10], more than 100 µM; in experiment [5] it was 26.5 µM. The TGI in [1], in [6], in [2], in experiment [3], in [4] and in experiment [8] was more than 100 µM throughout. Further, the TGI in experiment [9], in experiment [10] and in experiment [5] was more than 100 µM each time.
Regarding `S=C(N/N=C/c1ccco1)NC12CC3CC(CC(C3)C1)C2`, the TGI in experiment [1], in experiment [2], in [4] and in experiment [5] was more than 100 µM each time.

The values are drawn from PubChem BioAssay (NCI).
